Experimental data: patent US20060167096A1, “Livestock products with an increased ppar/rxr heterodimer activator level” (priority 2003, published 2006)
Like-named read-outs stand apart in the source and are kept apart here.

Assays:
[1] = test system: ISABROWN layers; test: Layer feeding trial with phytol supplemented feed; assay type: in vivo; details: 2% phytol in feed, compared with standard layer diet
[2] = test system: Hybrid boars; test: Pork finishing trial with phytol sprayed feed; assay type: in vivo, pig
Experimental: (§1) In the present specification the level of the PPAR/RXR heterodimer activator is expressed as a percentage of total FAME fatty acids. These total FAME fatty acids comprise those fatty acids with a linear chain of at least 12 carbons and are measured by the so-called FAME technique, which is well known for the skilled person and wherein, first, fatty acid methyl esters are prepared which are, subsequently, analysed via gas chromatography. The FAME procedure used for determining the results obtained by the present invention was as follows. Lipids were extracted from the samples using a dissolving solution that is specific to each sample type. Nonadecanoic acid (19:0) was added as an internal standard. The two-step methylation procedure consisted of using a basic reagent NaOH/methanol followed by an acid reagent HCI/methanol. The fatty acid methyl esters (FAME) were analyzed by GC (HP 6890, Hewlett-Packard, Brussels, Belgium) using a CP-Sil88 column for FAME (100 m×250 μm×0.25 μm) (Chrompack, Middelburg, The Netherlands). The GC conditions were as adapted to each sample type. Peaks were identified by comparison of retention times with those of the corresponding standards (Sigma, Botnew, Belgium; Nu-Chek-Prep, Elysian, M N). Identification of the peaks included fatty acids between 12:0 and 22:6 and 5 different CLA isomers and phytanic acid and pristanic acid.
Hybrid boars weighing in at about 80 kg were kept lege artis and fed a standard finishing granulated feed sprayed on with phytol at a level of 2% of feed weight. The feed was formulated and produced by Schatteman in Wetteren, Belgium and contained on average about 7% of humidity. On spraying, the feed readily absorbed this oily substance. […] Tissue samples were taken and the carcass quality assessed. The carcasses were further butchered in the usual fashion to chops, loins, sausages and the like and the meat quality of the prime cuts was assessed.
The quality was assessed objectively using the following parameters: % meat on the carcass, type-index, meat class, meat moisture, meat color, meat temperature and meat pH change.

[3] = test system: laboratory animals; details: Steinberg 1966, cited from earlier work
[4] = test system: Tiger shrimp (Penaeus Monodon); test: Shrimp feeding trial with phytol supplemented diet; assay type: in vivo; details: 2% phytol diet, 4 weeks
[5] = test system: ROSS 308 broiler chicks; test: Broiler feeding trial with phytol supplemented feed; assay type: in vivo, chicken; details: 42 days
Experimental: as §1
ROSS 308 broiler chicks were raised, lege artis, on an ad libitum diet, containing phytol at 2% by weight of feed that, characteristically, contains about 10% of humidity. The chicks consumed an average of about 0.1 kg dry weight of the feed per day. The phytol in the diet replaced 2% of the soybean oil included in feeds formulated based on the INVE Nutritional Requirement standard formula for a grower feed (formula 120). Please refer to the following tables for the feed formula and for its chemical composition.
The animals were slaughtered after 42 days and their tissues sampled for analysis.

[6] = test system: yellow perch; details: max 0.6% CLA in diet, Twibell 2001; cited from earlier work
[7] = test system: egg yolk; details: cited from earlier work
[8] = test system: Chicken meat; details: max 1.5% CLA in diet, Szymczyk 2001; cited from earlier work
[9] = target: T1, PPAR alpha (Homo sapiens, UniProt Q07869); details: cited from earlier work
T1 sequence (Q07869 1-468): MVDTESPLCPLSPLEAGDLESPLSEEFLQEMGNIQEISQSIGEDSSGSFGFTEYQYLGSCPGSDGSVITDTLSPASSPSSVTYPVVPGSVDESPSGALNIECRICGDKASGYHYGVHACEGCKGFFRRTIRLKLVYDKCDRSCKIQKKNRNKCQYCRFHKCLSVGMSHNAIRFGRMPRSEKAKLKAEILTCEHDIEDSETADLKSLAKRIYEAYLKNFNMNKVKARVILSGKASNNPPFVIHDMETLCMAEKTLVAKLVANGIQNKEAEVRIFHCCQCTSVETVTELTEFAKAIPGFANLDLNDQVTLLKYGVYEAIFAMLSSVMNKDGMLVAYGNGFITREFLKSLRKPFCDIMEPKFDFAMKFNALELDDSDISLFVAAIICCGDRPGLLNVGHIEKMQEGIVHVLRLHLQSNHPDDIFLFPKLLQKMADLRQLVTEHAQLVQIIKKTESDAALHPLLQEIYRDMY

[10] = test system: striped bass; details: max 0.6% CLA in diet, Twibell 2000; cited from earlier work
[11] = test system: lean pork; details: cited from earlier work
[12] = test system: Carp; details: max 1% CLA in diet, Choi 1999; cited from earlier work
[13] = target: T2, PPAR gamma (Homo sapiens, UniProt P37231); details: Houseknecht 1998, Yu 2002; cited from earlier work
T2 sequence (P37231 1-505): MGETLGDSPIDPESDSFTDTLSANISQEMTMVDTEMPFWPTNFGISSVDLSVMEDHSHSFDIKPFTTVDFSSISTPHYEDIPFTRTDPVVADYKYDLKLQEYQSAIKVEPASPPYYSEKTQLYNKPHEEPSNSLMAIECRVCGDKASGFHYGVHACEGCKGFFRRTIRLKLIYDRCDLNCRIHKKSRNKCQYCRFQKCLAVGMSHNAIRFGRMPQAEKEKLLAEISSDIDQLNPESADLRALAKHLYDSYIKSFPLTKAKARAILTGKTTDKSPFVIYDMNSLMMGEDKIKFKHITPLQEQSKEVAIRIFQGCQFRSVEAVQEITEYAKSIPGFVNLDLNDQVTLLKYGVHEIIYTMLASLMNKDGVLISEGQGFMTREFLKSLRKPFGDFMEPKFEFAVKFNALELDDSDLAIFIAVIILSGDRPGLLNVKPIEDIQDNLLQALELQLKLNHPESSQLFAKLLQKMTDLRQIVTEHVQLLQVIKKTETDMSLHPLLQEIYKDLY

[14] = test system: RXR; details: cell research; Kitareewan 1996; cited from earlier work

**Q.** For `C/C(=C\CO)CCC[C@H](C)CCC[C@H](C)CCCC(C)C` [phytol], which mortality nor morbidity [1] is on record?
**A.** no difference

**Q.** What about the sickness or death ([2]; 2% phytol feed, entire finishing period) of the same molecule?
**A.** no animals got sick or died

**Q.** And the “content of PhA and PrA in the pork meat” value ([2]; male, hybrid, pig, in vivo, 1 month)?
**A.** 2.3 % of total FAME fatty acids

**Q.** What about the “feeding behavior or level of activity” value ([2]; pig, in vivo) of the same molecule?
**A.** no difference

**Q.** What about the “morbidity (growth retardation, weight loss and lethargy)” value ([3]; from levels of supplementation of 1% of diet weight on) of the same molecule?
**A.** substantial morbidity

**Q.** And the mortality ([3]; levels of 5% of diet weight)?
**A.** serious mortality rates

**Q.** What about the survival rate ([4]; vs standard diet) of the same molecule?
**A.** no difference

**Q.** What about the “growth (weight at end of feeding trial)” value ([4]; start 0.7 g) of the same molecule?
**A.** 2.05 g

**Q.** What about the mortality or morbidity ([5]; 2% phytol in feed, compared with standard broiler feed) of the same molecule?
**A.** no difference

**Q.** What about the “PhA average level in breast meat” value ([5]; ROSS 308, chicken, in vivo) of the same molecule?
**A.** 2.6 % of total fatty acids

**Q.** What about the “content of PhA in the breast meat, one subgroup” value ([5]; ROSS 308, chicken, in vivo) of the same molecule?
**A.** around 1.9%

**Q.** And the “content of PhA in the breast meat, other subgroup” value ([5]; ROSS 308, chicken, in vivo)?
**A.** around 3.6%

**Q.** For conjugated linoleic acid [CLA], which “max of TFA (maximum level of CLA in product as percent of total fatty acids)” value [6] is on record?
**A.** 2.92%

**Q.** And the “max of TFA (maximum level of CLA in product as percent of total fatty acids)” value ([7]; max 2% CLA in diet, Shafer 2001)?
**A.** 7.95%

**Q.** And the “max of TFA (maximum level of CLA in product as percent of total fatty acids)” value ([7]; max 3% CLA in diet, Raes 2002)?
**A.** 5.3%

**Q.** And the “max of TFA (maximum level of CLA in product as percent of total fatty acids)” value ([7]; max 5% CLA in diet, Chamruspollert 1999)?
**A.** 11.2%

**Q.** What about the “max of TFA (maximum level of CLA in product as percent of total fatty acids)” value [8] of the same molecule?
**A.** 10.27%

**Q.** What about the PPAR alpha agonism ([9]; Moya-Camarena 1999) of the same molecule?
**A.** agonist of PPAR alpha

**Q.** And the “max of TFA (maximum level of CLA in product as percent of total fatty acids)” value [10]?
**A.** 8.1%

**Q.** What about the “max of TFA (maximum level of CLA in product as percent of total fatty acids)” value ([11]; lean pork (>100 kg), max 1% CLA in diet, Thiel-Cooper 2001) of the same molecule?
**A.** 0.7%

**Q.** And the “max of TFA (maximum level of CLA in product as percent of total fatty acids)” value ([11]; lean pork (>100 kg), max 5% CLA in diet, Joo 2002)?
**A.** 1.6%

**Q.** And the “max of TFA (maximum level of CLA in product as percent of total fatty acids)” value ([11]; lean pork (up to 55 kg), max 1.4% CLA in diet, Ramsey 2001)?
**A.** 3.2%

**Q.** What about the “max of TFA (maximum level of CLA in product as percent of total fatty acids)” value [12] of the same molecule?
**A.** 13%

**Q.** What about the PPAR gamma agonism [13] of the same molecule?
**A.** agonist of PPAR gamma

**Q.** Which results are given for `CC(C)CCC[C@@H](C)CCC[C@@H](C)CCCC(C)CC(=O)O` (some centres unmarked) [PhA, tetramethylhexadecanoic acid]?
**A.** PPAR alpha activation ([9]; physiologic concentrations, Ellinghaus 1999): potent activator of PPAR alpha; RXR ligand [14]: ligand of RXR
